Assay results: patent publication EP1192131B1, “METHOD OF INHIBITING AMYLOID PROTEIN AGGREGATION AND IMAGING AMYLOID DEPOSITS USING ISOINDOLINE DERIVATIVES” (Warner-Lambert Company LLC, priority 1999, dated 2000)
“And” between values parts separate entries of the source, which are not always exact repeats. Equal entries are not always repeated. Where two headings read alike, the source gives them in different places.

Tests used:
Aβ(1-40) = Aβ(1-40) (Homo sapiens, UniProt P05067); test: BASSR (Beta-Amyloid Self-Seeding Radioassay), inhibition of self-seeded amyloid fibril growth; format: biochemical; parameters: Soluble Aβ(1-40) peptide (Bachem, Torrance, CA); purchased Bachem, Torrance, CA; settings: 30 µM soluble Aβ (1-40) + 125I-labeled Aβ(1-40), 37°C, 3 to 5 hours, several values in a cell = repeat values, letter in parentheses = lot of compound (no letter = Lot P), (ppt), (v-shape) flags
Sequence of Aβ(1-40) (P05067 672-711): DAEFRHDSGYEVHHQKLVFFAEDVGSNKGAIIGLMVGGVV
Method: BASSR (Beta-Amyloid Self-Seeding Radioassay)
An assay for inhibitors of self-seeded amyloid fibril growth
Assay Buffer - 50 mM sodium phosphate, pH 7.5, 100 mM NaCl, 0.02% NaN3, 1 M urea (filter and store at 4°C)
Soluble Aβ(1-40) peptide (Bachem, Torrance, CA) - 2.2 mg/mL in deionized H2O (stored in aliquots at -20°C, keep on ice when thawed) will self-seed after 1 week storage. Typically, the solution should be stored until no lag phase is seen in the assay.
^125I-labeled Aβ (1-40) - 150K-350K cpm/µL in 100% acetonitrile -0.1% trifluoroacetic acid (TFA) -1% β-mercaptoethanol (aliquots stored at -20°C) ^125I-labeled Aβ(1-40) can be made in accordance with the procedure set forth by H. LeVine, III in Neurobiol. Aging, 16:755 (1995), which is hereby incorporated by reference, or this reagent may be purchased from Amersham, Arlington Heights, Illinois.
Final assay conditions: 30 µM soluble Aβ (1-40) in deionized water in assay buffer + 20-50K cpm ^125I-labeled Aβ(1-40) per assay. Compound to be tested is dissolved in dimethylsulfoxide (DMSO), typically 5-50 mM stock, such that the final concentration of DMSO is <1% v/v in the assay.
Assay: Reaction mixture for 50 assays (on ice) is comprised of 0.1-0.2 µL of ^125I-labeled A^125I-labeled Aβ(1-40) + 1 µL of soluble Aβ (1-40) + 13.5 µL assay buffer per assay. The following are the amounts of the components of the reaction mixture sufficient for 50 assay wells. 5-10 µL ^125I-labeled Aβ (1-40) dried down 675 µL assay buffer 50 µL soluble Aβ (1-40)
• 1) Prepare reaction mixture above by mixing components and storing on ice. • 2) Pipet 14.5 µL of reaction mixture into each of 50 wells on a polypropylene U-bottom 96-well microtiter plate on ice (Costar 3794). • 3) Add 1.7 µL, of diluted compound to be tested to each well in a column of eight, including solvent control. Serial 3-fold dilutions from 1 mM (100 µM final) in assay buffer -urea = 7 dilutions + zero. Each 96-well plate can therefore accommodate 11 samples + 1 Congo Red control (0.039-5 µM final in 2-fold steps). • 4) Seal the plate with aluminum film (Beckman 538619) and incubate for 10 minutes on ice. • 5) Raise the temperature to 37°C and incubate for 3 to 5 hours (depending on the lot of the peptide). • 6) Remove the aluminum film and add 200 µL/well of ice cold assay buffer with urea, collecting the radiolabeled fibrils by vacuum filtration through 0.2 µm pore size GVWP filters in 96-well plates (Millipore MAGV N22, Bedford, MA). Determine the radioactivity of the filters using standard methods well-known to those skilled in the art.

Aβ (1-40) peptide = molecular target: T1, Aβ (1-40) peptide (Homo sapiens, UniProt P05067); test: BAPA (Beta-Amyloid Peptide Aggregation, pH 6.0), filtration endpoint assay; format: biochemical
T1 construct: 10 µL 0.5 mg/mL Aβ (1-40) peptide in 20% HFIP
T1 sequence (P05067 672-711): as above
Method: BAPA (Beta-Amyloid Peptide Aggregation
This assay is used to provide a measure of inhibition by a compound against the aggregation behavior of the beta amyloid peptide.
The purpose of this assay is to provide a higher volume method of assaying the amount of beta amyloid aggregation using an endpoint assay based on filtration. In this assay, hexafluoroisopropanol (HFIP) is used to break down the initial amyloid peptide to a monomer state and use a concentration of 33 µM which is high enough so that aggregation will occur at pH 6.0 in several hours.
β-Amyloid Peptide Aggregation. pH 6 0 (BAPA)
In a 96-well plate (Costar 3794), we add 25 µL 50 mM Phosphate Buffer, pH 6.0, 10 µL 0.5 mg/mL Aβ (1-40) peptide in 20% HFIP + 0.1 µL/assay radioiodinated ^125I Aβ (1-40) [^125I Aβ(1-40)], and 1 µL of the compound to be tested starting at 50 mM with a concentration of DMSO <1%. Then, we incubate for 2 to 4 hours at room temperature. We stop the reaction with 200 µL of 50 mM phosphate buffer, pH 6.0, and filter it through a 0.2 µm 96-well filter plate (Millipore MAGU N22) We wash the filter plate with 100 µL of the same phosphate buffer. Aggregation was detected on a Microbeta counter after impregnating the filters with Meltilex (1450-441) and is corrected for background

[1] = read-out: BASSR IC50 (converted)
[2] = Aβ (1-40) 33 µM, pH 6.0, 2 to 4 hours at room temperature; letter in parentheses = lot of compound (no letter = Lot P); read-out: BAPA IC50
[3] = read-out: BAPA IC50; Aβ (1-40) 33 µM, pH 6.0, 2 to 4 hours at room temperature; letter in parentheses = lot of compound (no letter = Lot P)

| Compound | IC50 (Aβ(1-40); [1]) | IC50 (Aβ (1-40) peptide; [2]) | IC50 (Aβ(1-40); read-out: BASSR IC50) | IC50 (Aβ (1-40) peptide; [3]) [µM] |
| --- | --- | --- | --- | --- |
| Clc1ccc(N2Cc3ccc(Nc4ccccc4-c4nnn[nH]4)cc3C2)cc1Cl [Example 16, [2-(3,4-Dichloro-phenyl)-2,3-dihydro-1H-isoindol-5-yl]-[2-(1H-tetrazol-5-yl)-phenyl]-amine] | > 100 µM | 86 µM |  |  |
| 2-[2-(3,4-Dimethylphenyl)-2,3-dihydro-1H-isoindol-5-ylamino]benzoic acid [Example 9] | > 100 µM | 13 µM |  |  |
| Cc1ccc(N2Cc3ccc(Nc4ccc([N+](=O)[O-])cc4C(=O)O)cc3C2)cc1C [Example 12, 2-[2-(3,4-Dimethyl-phenyl)-2,3-dihydro-1H-isoindol-5-ylamino]-5-nitro-benzoic acid] | > 100 µM | 5 µM |  |  |
| 2-[2-(4-chlorophenyl)-2,3-dihydro-1H-isoindol-5-ylamino]benzoic acid [Example 8] | > 100 µM | 19 µM |  |  |
| COc1cc(N2Cc3ccc(Nc4ccccc4C#N)cc3C2)cc(OC)c1OC [Example 25, 2-[2-(3,4,5-Trimethoxy-phenyl)-2,3-dihydro-1H-isoindol-5-ylamino]-benzonitrile] | > 100 µM | 25 µM |  |  |
| O=C(O)c1ccccc1Nc1ccc2c(c1)CN(c1ccc(Cl)c(Cl)c1)C2 [Example 4, 2-[2-(3,4-Dichlorophenyl)-2,3-dihydro-1H-isoindol-5-ylamino]benzoic acid] | 12 µM and 11 µM (2×) and 15 µM (3×) | 101 µM and > 100 µM and 93 µM |  |  |
| 2-[2-(3-chlorophenyl)-2,3-dihydro-1H-isoindol-5-ylamino]benzoic acid [Example 7] | 90 µM and 80 µM and > 100 µM | 28 µM |  |  |
| O=C(O)c1ccccc1Nc1ccc2c(c1)CN(c1cccc(F)c1)C2 [Example 22, 2-[2-(3-Fluoro-phenyl)-2,3-dihydro-1H-isoindol-5-ylamino]-benzoic acid] | 10 µM and 3 µM (2×) and 6.5 µM and 8 µM | > 60 µM |  |  |
| O=C(O)c1cc([N+](=O)[O-])ccc1Nc1ccc2c(c1)CN(c1ccccc1)C2 [Example 18, 5-Nitro-2-(2-phenyl-2,3-dihydro-1H-isoindol-5-ylamino)-benzoic acid] | 7 µM and 4 µM and 5 µM | 97 µM |  |  |
| Nc1ccc(Nc2ccc3c(c2)CN(c2ccc(Cl)c(Cl)c2)C3)c(C(=O)O)c1 [Example 17, 5-Amino-2-[2-(3,4-dichloro-phenyl)-2,3-dihydro-1H-isoindol-5-ylamino]-benzoic acid] | 20 µM and 80 µM | 40 µM |  |  |
| O=C(O)c1cc([N+](=O)[O-])ccc1Nc1ccc2c(c1)CN(c1ccc(Cl)c(C(F)(F)F)c1)C2 [Example 19, 2-[2-(4-Chloro-3-trifluoromethyl-phenyl)-2,3-dihydro-1H-isoindol-5-ylamino]-5-nitro-benzoic acid] |  |  | 1.1 µM and 1 µM | > 10 |
| COc1cccc(N2Cc3ccc(Nc4ccccc4C(=O)O)cc3C2)c1 [Example 26, 2-[2-(3-Methoxy-phenyl)-2,3-dihydro-1H-isoindol-5-ylamino]-benzoic acid] | > 100 µM | > 60 µM |  |  |
| COc1cc(Nc2ccc3c(c2)CN(c2ccc(Cl)c(Cl)c2)C3)c(C(=O)O)cc1[N+](=O)[O-] [Example 6, 2-[2-(3,4-Dichlorophenyl)-2,3-dihydro-1H-isoindol-5-ylamino]-4-methoxy-5-nitro-benzoic acid] | 7 µM (2×) and 12 µM and 4 µM and 5 µM | 14 µM |  |  |
| COc1cccc(N2Cc3ccc(Nc4ccc([N+](=O)[O-])cc4C(=O)O)cc3C2)c1 [Example 21, 2-[2-(3-Methoxy-phenyl)-2,3-dihydro-1H-isoindol-5-ylamino]-5-nitro-benzoic acid] | 7 µM and 2.2 µM and 2 µM | > 60 µM |  |  |
| O=C(O)c1cc(F)ccc1Nc1ccc2c(c1)CN(c1ccc(Cl)c(Cl)c1)C2 [Example 23, 2-[2-(3,4-Dichloro-phenyl)-2,3-dihydro-1H-isoindol-5-ylamino]-5-fluoro-benzoic acid] | > 100 µM and 50 µM and 70 µM | 62 µM |  |  |
| O=C(O)c1ccccc1Nc1ccc2c(c1)CN(c1ccc(Cl)c(C(F)(F)F)c1)C2 [Example 10, 2-[2-(4-Chloro-3-trifluoromethylphenyl)-2,3-dihydro-1H-isoindol-5-ylamino]benzoic acid] |  |  | 100 µM and 58 µM and 55 µM and 70 µM | 16 |
| O=C(O)c1cc([N+](=O)[O-])ccc1Nc1ccc2c(c1)CN(c1cccc(F)c1)C2 [Example 20, 2-[2-(3-Fluoro-phenyl)-2,3-dihydro-1H-isoindol-5-ylamino]-5-nitro-benzoic acid] | > 100 µM | > 60 µM |  |  |
| O=C(O)c1cc([N+](=O)[O-])ccc1Nc1ccc2c(c1)CN(c1ccc(Cl)cc1)C2 [Example 15, 2-[2-(4-Chloro-phenyl)-2,3-dihydro-1H-isoindol-5-ylamino]-5-nitro-benzoic acid] | > 100 µM | > 100 µM |  |  |
